Three molecules from patent US20210008177A1 (priority 2019, published 2021) can be followed below.

Entries after “also recorded” stand apart in the source; their conditions may differ. Where two headings read alike, the source gives them in different places.

In experiment [1] the test system is Kunming mice. Type of experiment: in vivo. The settings on record: for average pain threshold before injection, difference between physiological saline, cobrotoxin and cobrotoxin+morphine groups: day 5 through day 11.
Description: 100 Kunming mice were subjected to tail pressure tests for 4 days to measure the mechanical pain threshold and the average pain threshold will be set as the baseline pain threshold. • i. Put the mouse gently into the restraint and put its tail under the conical tip of the pain test apparatus. Press the pedal switch, and increase the pressure on the proximal end of the tail evenly until signs of the first pain response (struggle, squeaking) occurs. Record pain-inducing pressure when pain response occurs (units: g) as the value of pain threshold. The pressure was released upon reaching 700 g with no indication of a response to avoid tissue injury. Measurements were also conducted at the middle and distal ends of the tail of the same mouse with a minimum of 30 seconds time intervals between each measurement. • ii. Put the tested mice in a cage and test the next one until every mouse in the group is tested. The average of the three measurements (i.e., the proximal, mid and distal ends of each mouse tail) was used as the pain threshold (g) of each mouse when all mice were subjected to a tail pressure test. • iii. In the following 3 days, all mice underwent repeated measurements of tail pressure pain threshold. • iv. […] The mice were then randomly divided into four groups: namely ‘physiological saline group’, ‘morphine group’, ‘cobrotoxin group’ and ‘cobrotoxin+morphine group’. Each group comprised of 20 mice, which is used for the hyperalgesia and tolerance test of the corresponding drugs in the group's name. Any surplus mice were excluded. • v. Lastly, each group of 20 mice was divided randomly again into two groups, with each group comprising 10 mice, as cobrotoxin of amino acid sequence ID NO.1, and cobrotoxin of amino acid sequence ID NO. 2 will be used for parallel testing
After 4 days of measurement of the mice's baseline pain threshold described in step 1, from the fifth day to the eleventh day, the measurement of pain threshold was performed before the injection. […]
Experiment [2] concerns Kunming mice. The settings on record: mouse, in vivo.
Description: To evaluate the therapeutic effects elapidea neurotoxins, one of the reliable morphine induced hyperalgesia/tolerance model in mice (Elhabazi, K et al) was created, and effects of the representative EXAMPLE compounds were investigated on the model.
100 Kunming mice were subjected to tail pressure tests for 4 days to measure the mechanical pain threshold and the average pain threshold will be set as the baseline pain threshold. • i. Put the mouse gently into the restraint and put its tail under the conical tip of the pain test apparatus. Press the pedal switch, and increase the pressure on the proximal end of the tail evenly until signs of the first pain response (struggle, squeaking) occurs. Record pain-inducing pressure when pain response occurs (units: g) as the value of pain threshold. The pressure was released upon reaching 700 g with no indication of a response to avoid tissue injury. Measurements were also conducted at the middle and distal ends of the tail of the same mouse with a minimum of 30 seconds time intervals between each measurement. • ii. Put the tested mice in a cage and test the next one until every mouse in the group is tested. […] The pain threshold of the mice measured by the tail pressure test ranged from 180 g to 220 g. […]
Experiment [3] deals with SD rats. As to conditions: rat, in vivo.
Protocol: Writhing test was applied to the rats, which is a chemical method used to induce pain of the peripheral origin by injection of irritant principles like acetic acid in rats. Analgesic effect of the test compound is inferred from the decrease in the frequency of writhe.
The aforementioned four groups of rats were injected with sterile saline (NaCl 0.9% 1 ml), morphine (3 mg/kg), cobrotoxin (50 ug/kg), and cobrotoxin (25 ug/kg)+morphine (1.5 mg/kg) respectively.
Following Step1, the aforementioned four groups SD rats were injected with 1.5% acetic acid solution (1 ml/rat) again 150 and 210 minutes after the initial injection of 4 different drugs respectively.
Experiment [4] relates to NO. Put plainly: NO content in lumbar spinal cord tissue of mice after tolerance and hyperalgesia tests. The settings on record: lumbar spinal cord homogenate of mice after 7 days of injections, cobrotoxin of sequence ID NO.1, SD in own column.
Experiment [5] relates to IL-6. Put plainly: IL-6 in lumbar spinal cord tissue of mice after tolerance and hyperalgesia tests (ELISA). The settings on record: lumbar spinal cord homogenate of mice after 7 days of injections, cobrotoxin of sequence ID NO.1, SD in own column.
Experiment [6] concerns NOS. Kind of experiment: NOS activity in lumbar spinal cord tissue of mice after tolerance and hyperalgesia tests. As to conditions: lumbar spinal cord homogenate of mice after 7 days of injections, cobrotoxin of sequence ID NO.1, SD in own column.
The test system of experiment [7] is IL-1β. Put plainly: IL-1β in lumbar spinal cord tissue of mice after tolerance and hyperalgesia tests (ELISA). As to conditions: lumbar spinal cord homogenate of mice after 7 days of injections, cobrotoxin of sequence ID NO.1, SD in own column.

On to `CN1CC[C@]23c4c5ccc(O)c4O[C@H]2[C@@H](O)C=C[C@H]3[C@H]1C5` [morphine], for which the “mean pain threshold before injection (hyperalgesia)” value in experiment [1] (mouse, in vivo) is given as “significantly lower”. Further, the “average pain threshold one hour after injection, difference within the group between day five, eight and eleven” value in experiment [2] is given as “significant statistical difference”. The “mean pain threshold one hour after injection, course within the group (tolerance)” value in experiment [2] was “significantly decreased from day 5 to day 11”. Also, in experiment [3], the “analgesic effect in writhing test” value is reported as “lower analgesic effect; also recorded: almost no signs of any analgesic effect”. For the same molecule, in experiment [3], the “number of writhing, difference within the group between 60, 150 and 210 minutes” value is on record as “significant statistical difference”. The values for the NO entry in experiment [4] and in experiment [4] (listed as Morphine) were “significantly higher” and 1.61 μmol/g protein, respectively. The IL-6 entry in experiment [5] is listed as “significantly higher”; in experiment [5] (listed as Morphine) it was 19.40 pg/mg protein. Also, the NOS entry is recorded as “significantly higher” in experiment [6] and 7.56 U/mg protein in experiment [6] (listed as Morphine). In addition, the IL-1β entry in experiment [7] is on record as “significantly higher”; in experiment [7] (listed as Morphine), 16.80 pg/mg protein.

B1: Cobrotoxin of amino acid sequence ID No.2: mktllltllv vtivcldlgy tlechnqqss qtptttgcsg getncykkrw rdhrgyrter gcgcpsvkng ieinccttdr cnn (protein)
chain: MKTLLLTLLVVTIVCLDLGYTLECHNQQSSQTPTTTGCSGGETNCYKKRWRDHRGYRTERGCGCPSVKNGIEINCCTTDRCNN
modifications: Naja atra or Naja kaouthia
notes: mktllltllv vtivcldlgy tlechnqqss qtptttgcsg getncykkrw rdhrgyrter gcgcpsvkng ieinccttdr cnn
As to B1, the “average pain threshold before injection, difference between physiological saline, cobrotoxin and cobrotoxin+morphine groups” value in experiment [1] (FIG. 4, cobrotoxin of sequence ID No.2) is listed as “No significant statistical differences”.

B2: Cobrotoxin of amino acid sequence ID No.1 (protein)
chain: LECHNQQSSQTPTTTGCSGGETNCYKKRWRDHRGYRTERGCGCPSVKNGIEINCCTTDRCNN
modifications: Naja atra or Naja kaouthia
With B2, the “average pain threshold before injection, difference between physiological saline, cobrotoxin and cobrotoxin+morphine groups” value in experiment [1] (FIG. 3, cobrotoxin of sequence ID No.1) is reported as “No significant statistical differences”.
